Results as given in patent US10443043B2, “Methods for making induced pluripotent stem cells” (NEW YORK UNIVERSITY, priority 2015, dated 2019).

What was measured:
Type in all cases: cell-based, mouse
[1] = tested on: SSEA1+ day 4 intermediates of reprogrammable MEFs; assay: Microarray and gene ontology analysis of day 4 reprogramming intermediates; settings: individual chemical
From the text: For the study of reprogramming intermediates, cultures of reprogrammable MEFs at day 4 in presence of OKSM expression were harvested and stained with biotinylated anti-SSEA1 antibody (MC-480, eBioscience), followed by APC-conjugated Streptavidin and anti-APC microbeads (Milteny Biotec). SSEA1^+ cells were enriched to ˜90% purity using MACS separation columns (Milteny Biotec) according to the manufacturer's instructions. Total RNA extracted with the miRNeasy mini kit (QIAGEN) with a RIN value >8 was subjected to transcriptional analyses with Affymetrix mouse genome 430 2.0 mRNA expression microarrays followed by bioinformatic analyses.
Pair-wise differential expression of MEFs, ESCs, GMPs and HEPs was assessed using a t-test and the resulting p-values were adjusted for multiple hypothesis testing as by the Benjamini & Hochberg procedure. […] FDR was assessed using the following methodology. […] Briefly, differential expression was assessed for every Affymetrix transcript probe between samples. As a preprocessing step, quantiles were normalized across samples and replicates, and subsequently fold changes were computed for each probe across the two replicates of each sample. The false discovery rate was computed by comparing the distribution of fold changes against the distribution of fold changes between replicates of the same sample.

[2] = tested on: GMPs; assay: Bulk reprogramming of granulocyte-macrophage progenitors, dox-independent colonies
Protocol: (§1) MEFs (Stadtfeld et al., 2008) and hepatoblasts (Gailhouste, 2012) were isolated from E14.5 embryos and GMPs, CMPs, MEP and LSK cells from either fetal liver or adult bone marrow (Akashi et al., 2000). All cell types used for reprogramming experiments were heterozygous for the inducible OKSM cassette, Rosa26-rtTA and the Oct4-GFP reporter. MEFs were expanded in reduced-oxygen conditions (4%) and used at passages 1 or 2. For reprogramming, cells were seeded in ESC media (DMEM with 15% FBS, L-glutamin, penicillin-streptomycin, nonessential amino acids, β-mercaptoethanol and 1000 U/ml LIF) at the desired density on a layer of irradiated feeder cells in presence of 1 mg/ml doxycycline. If applicable, L-Ascorbic acid (50 ng/μl), CHIR99021 (3 μM), TGFβ RI Kinase Inhibitor II (250 nM) and PD032590 (0.75 μM) were added. […] To score factor-independent colonies, dox (and other compounds) were removed by washing cultures twice with PBS and then maintaining them in ESC media for at least three days before colonies were counted by fluorescence microscopy or after alkaline phosphatase staining (Vector Laboratories). For quantification of Oct4-GFP expression, cultures were harvested by trypsin digestion, stained with DAPI or 7-AAD to exclude dead cells, acquired on a LSRII cytometer (BD Biosciences) and analyzed with FlowJo software (Tree Star Inc.). […]

[3] = tested on: reprogrammable MEFs; assay: Reprogramming of reprogrammable MEFs seeded in bulk, dox-independent colonies; settings: six days dox plus compound, then three days unsupplemented ESC media
Protocol: MEFs (Stadtfeld et al., 2008) and hepatoblasts (Gailhouste, 2012) were isolated from E14.5 embryos and GMPs, CMPs, MEP and LSK cells from either fetal liver or adult bone marrow (Akashi et al., 2000). All cell types used for reprogramming experiments were heterozygous for the inducible OKSM cassette, Rosa26-rtTA and the Oct4-GFP reporter. MEFs were expanded in reduced-oxygen conditions (4%) and used at passages 1 or 2. For reprogramming, cells were seeded in ESC media (DMEM with 15% FBS, L-glutamin, penicillin-streptomycin, nonessential amino acids, β-mercaptoethanol and 1000 U/ml LIF) at the desired density on a layer of irradiated feeder cells in presence of 1 mg/ml doxycycline. If applicable, L-Ascorbic acid (50 ng/μl), CHIR99021 (3 μM), TGFβ RI Kinase Inhibitor II (250 nM) and PD032590 (0.75 μM) were added. For GMPs and other blood progenitors, cultures were supplemented with Flt3-ligand (10 ng/ml) and SCF (20 ng/ml) for the first three days of reprogramming. Media was replenished every two days. To facilitate detection of Oct4-GFP expression in nascent colonies by fluorescent microscopy, reprogramming experiments were conducted in ESC media prepared with FluoroBrite DMEM (Life Technologies) when required. To score factor-independent colonies, dox (and other compounds) were removed by washing cultures twice with PBS and then maintaining them in ESC media for at least three days before colonies were counted by fluorescence microscopy or after alkaline phosphatase staining (Vector Laboratories). For quantification of Oct4-GFP expression, cultures were harvested by trypsin digestion, stained with DAPI or 7-AAD to exclude dead cells, acquired on a LSRII cytometer (BD Biosciences) and analyzed with FlowJo software (Tree Star Inc.).
The aforementioned compounds were tested using “reprogrammable MEFs” (Stadtfeld et al., 2010) engineered to express a doxycycline (dox)-inducible cassette encoding OKSM (Sommer et al., 2009) from a single defined genomic position and a GFP reporter from the endogenous Oct4 locus, whose expression is a hallmark of the pluripotent state. […]

[4] = tested on: GMPs; assay: Single cell seeding of DsRed GMPs, Oct4-GFP expression; settings: flow cytometry, six days
Protocol: as §1

[5] = tested on: β-catenin; assay: β-catenin immunofluorescence in GMPs; settings: purified GMPs cultured in CHIR, two days
From the text: FIG. 8A-8G. Related to FIG. 3. (8A) Fluorescence images of DsRed and Oct4-GFP expression in a representative GMP-derived colony derived upon culture in dox+CHIR for six days. (8B) Percentage of Oct4-GFP^+ cells in successfully reprogramming colonies after single cell seeding of GMPs in dox+CHIR or dox+3c, respectively (n=10 clonal colonies for each condition). (8C) AP staining of dox-independent colonies derived from LSK, GMP, MEP and CMPs in dox, dox+CHIR or dox+3c after six days of culture. (8D) Percentage of Oct4-GFP^+ cells in colonies obtained after single cell seeding of hepatoblasts and culture under the indicated conditions for six days (n=10 clonal colonies). (8E) IF images of β-catenin staining in cells derived from GMPs cultured under dox or dox+CHIR for two days. White arrows highlight representative cells positive for β-catenin expression. […]
Cells were fixed with paraformaldehyde, permeabilized and stained with primary antibodies against Oct4 (Santa Cruz, sc-8628), Nanog (Abcam, ab808992), Utf1 (Abcam, ab24273), Sall4 (Abcam, ab29112), Lin28 (Abcam, ab46020) and β-catenin (Sigma, C7207) followed by staining with appropriate secondary antibodies conjugated to either Alexa Fluor 555 or 647 (Invitrogen). Images were acquired with a Neo 5.5 cSMOS camera (Andor) and processed and analyzed using NIS-Elements and Adobe Photoshop. […]

[6] = tested on: hepatoblasts; assay: Reprogramming of hepatoblasts, dox-independent colonies; settings: compound alone
Protocol: as §1

O=C1O[C@H]([C@@H](O)CO)C(O)=C1O [AA, ascorbic acid]
aspect of the somatic program whose silencing is facilitated (GO analysis) [1]: mesodermal differentiation potential
effect on iPSC formation from blood progenitor cells [2]: did not significantly enhance
dox-independent colonies, efficiency of input cells [3]: about 2%

Cc1cccc(-c2[nH]ncc2-c2ccc3ncccc3n2)n1 [iAlk5]
aspect of the somatic program whose silencing is facilitated (GO analysis) [1]: collagen synthesis
dox-independent colonies, efficiency of input cells [3]: about 2%

Cc1c[nH]c(-c2cnc(NCCNc3ccc(C#N)cn3)nc2-c2ccc(Cl)cc2Cl)n1 [CHIR]
dox-independent colonies, efficiency of input cells [3]: 0.5%
average GFP labeling index (Oct4-GFP+ cells in colonies) [4]: over 90%
β-catenin protein level [5]: rapidly accumulated
effect on number of iPSC colonies from hepatoblasts [6]: little beneficial effect
